These results are taken from patent publication US20050080103A1, “Procedure for asthmatic, and other non-invasive surgery for brain tumor cures” (priority 2003, published 2005).

Entries after “also recorded” stand apart in the source; their conditions may differ.

This data set relates to asthma (attributed by the author to a brain tumor). Kind of data set: Self-treatment of the inventor's asthma by repeated deep inhalation of evaporated free base cocain. Conditions: inventor's self-report.

As to `COC(=O)[C@H]1[C@@H](OC(=O)c2ccccc2)C[C@@H]2CC[C@H]1N2C` [cocain], the “Outcome on asthma / asthma attacks” value (one person, evaporated free base piece about 1/10 gram inhaled once per half hour, 32 sessions over 16 hours, outcome realized 4 months later) is “effected the cure of my asthma; also recorded: not getting any more asthma attacks”. Further, the “Time until the metabolic use of one inhaled dose came to an end (session duration)” value (one full deep breath of evaporated free base cocain per session) is “approximately one half”.
